Tests used:
[1] = target: Kappa-type opioid receptor (Mus musculus) (UniProt P33534)
Description: Tested for antagonist activity against Opioid receptor kappa 1 in mouse vas deferens preparation by using C1977 as antagonist

[2] = target: Kappa-type opioid receptor (Rattus norvegicus, UniProt P34975); test: Compound was evaluated for the binding affinity towards Opioid receptor kappa 1 in rat brain homogenates using [3H]U-69593 as radioligand; format: tissue-based
Mu-type opioid receptor = Mu-type opioid receptor (Rattus norvegicus, UniProt P33535); test: Compound was evaluated for the binding affinity towards mu opioid receptor in rat brain homogenates using [3H]DAMGO as radioligand; format: tissue-based
[3] = target: T1, Delta-type opioid receptor (Rattus norvegicus, UniProt P33533); test: Compound was evaluated for the binding affinity towards Opioid receptor delta 1 in rat brain homogenates using [3H]DIDI as radioligand; format: tissue-based
[4] = target: T1, Delta-type opioid receptor; test: Compound was evaluated for the binding affinity towards Opioid receptor delta 1 in rat brain homogenates using [3H]naltrindole as radioligand; format: tissue-based
Cavia porcellus [5] = species: Cavia porcellus; test: Compound was evaluated for the percent inhibition of electrically evoked twitch height at 10 uM concentration in guinea pig ileum (GPI); format: functional
Mus musculus = species: Mus musculus; test: Compound was evaluated for the percent inhibition of electrically evoked twitch height at 10 uM concentration in mouse vas deferens (MVD); format: functional
Cavia porcellus [6] = species: Cavia porcellus; test: Compound was evaluated for the percent inhibition of twitch height at 10 uM concentration in guinea pig ileum assay; format: functional

Mu-type opioid receptor, sequence (P33535 whole entry): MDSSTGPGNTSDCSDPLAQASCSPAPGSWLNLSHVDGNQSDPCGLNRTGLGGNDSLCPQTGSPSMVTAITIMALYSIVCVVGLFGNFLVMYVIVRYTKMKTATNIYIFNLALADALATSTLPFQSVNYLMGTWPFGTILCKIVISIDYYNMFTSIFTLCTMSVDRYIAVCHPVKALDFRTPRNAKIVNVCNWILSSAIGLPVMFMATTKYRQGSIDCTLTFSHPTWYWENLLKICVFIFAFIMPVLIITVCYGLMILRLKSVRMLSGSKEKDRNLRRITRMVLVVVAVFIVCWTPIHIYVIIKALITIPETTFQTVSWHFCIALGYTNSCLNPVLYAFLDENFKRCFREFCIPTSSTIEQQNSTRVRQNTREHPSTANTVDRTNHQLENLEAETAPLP
Kappa-type opioid receptor, sequence (P34975 whole entry): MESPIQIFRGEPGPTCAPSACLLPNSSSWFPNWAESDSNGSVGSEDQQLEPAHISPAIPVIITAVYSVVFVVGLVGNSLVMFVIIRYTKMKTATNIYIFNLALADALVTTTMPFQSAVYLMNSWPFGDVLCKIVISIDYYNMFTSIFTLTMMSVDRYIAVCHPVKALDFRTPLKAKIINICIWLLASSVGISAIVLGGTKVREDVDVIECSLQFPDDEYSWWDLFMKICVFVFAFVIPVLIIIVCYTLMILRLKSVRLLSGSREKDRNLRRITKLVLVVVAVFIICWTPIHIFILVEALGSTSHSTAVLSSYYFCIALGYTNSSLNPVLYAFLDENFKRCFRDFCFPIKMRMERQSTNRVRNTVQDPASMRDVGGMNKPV
T1 sequence (P33533 whole entry): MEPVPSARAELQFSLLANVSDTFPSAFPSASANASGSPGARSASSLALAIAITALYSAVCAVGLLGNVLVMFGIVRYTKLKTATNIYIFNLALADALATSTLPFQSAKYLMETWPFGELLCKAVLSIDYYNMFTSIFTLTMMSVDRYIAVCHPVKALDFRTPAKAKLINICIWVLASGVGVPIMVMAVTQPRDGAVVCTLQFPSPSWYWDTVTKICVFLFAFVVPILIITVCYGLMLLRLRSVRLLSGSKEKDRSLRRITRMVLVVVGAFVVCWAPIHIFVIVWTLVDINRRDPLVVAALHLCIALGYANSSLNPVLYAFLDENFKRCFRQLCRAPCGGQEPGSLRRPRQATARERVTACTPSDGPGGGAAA
Kappa-type opioid receptor (Mus musculus), sequence (P33534 whole entry): as the sequence (P34975 whole entry) above, with E11D, A17S, P51S, V308A counted along it

| Compound | Ke [1] [nM] | Ki [2] [nM] | Ki (Mu-type opioid receptor) [nM] | Ki [3] [nM] | Ki [4] [nM] | inhibition at 10 µM (Cavia porcellus [5]) [%] | inhibition at 10 µM (Mus musculus) [%] | inhibition at 10 µM (Cavia porcellus [6]) [%] |
| --- | --- | --- | --- | --- | --- | --- | --- | --- |
| CCO[C@@]12Cc3c([nH]c4ccccc34)[C@]3(C)Oc4c(O)ccc5c4[C@@]31CCN(CC1CC1)C2C5 | 529 | 59.2 | 38.7 | 14 | 0.78 | 32 | 23 |  |
| Oc1ccc2c3c1O[C@H]1c4[nH]c5ccccc5c4C[C@@]4(O)[C@@H](C2)N(CC2CC2)CC[C@]314 [NALTRINDOLE] |  |  |  | 0.09 | 0.33 |  |  |  |
| C=CCN1CC[C@]23c4c5ccc(O)c4O[C@@]2(C)c2[nH]c4ccccc4c2C[C@@]3(OCC)[C@H]1C5 |  | 765 | 667 | 29.9 | 10.8 |  |  |  |
| CCO[C@@]12Cc3c([nH]c4ccccc34)[C@]3(C)Oc4c(O)ccc5c4[C@@]31CCN(C)[C@@H]2C5 |  | 286 | 715 | 8.81 | 5.75 |  |  | 21 |
